Reference: PubChem BioAssay (NCI)
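Compound exposure: 48 hours, 5 concentrations, 96-well plates. GI50 is the concentration that inhibits growth by half. TGI is the concentration that stops growth completely.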

Key:
Assay in all cases: NCI anticancer screen, dose series, 48 h
786-0 renal = tested on: 786-0 renal
A498 renal = tested on: A498 renal
A549 NSCLC = tested on: A549 NSCLC
ACHN renal = tested on: ACHN renal
CAKI-1 renal = tested on: CAKI-1 renal
COLO 205 colon = tested on: COLO 205 colon
DU-145 prostate = tested on: DU-145 prostate
HCC-2998 colon = tested on: HCC-2998 colon
HCT-116 colon = tested on: HCT-116 colon
HCT-15 colon = tested on: HCT-15 colon
HL-60(TB) leukemia = tested on: HL-60(TB) leukemia
HOP-62 NSCLC = tested on: HOP-62 NSCLC
HOP-92 NSCLC = tested on: HOP-92 NSCLC
HS 578T breast = tested on: HS 578T breast
HT29 colon = tested on: HT29 colon
IGROV1 ovarian = tested on: IGROV1 ovarian
KM12 colon = tested on: KM12 colon
M14 melanoma = tested on: M14 melanoma
MCF7 breast = tested on: MCF7 breast
MDA-MB-231 breast = tested on: MDA-MB-231 breast
MDA-MB-435 = tested on: MDA-MB-435
MOLT-4 leukemia = tested on: MOLT-4 leukemia
NCI-H226 lung = tested on: NCI-H226 lung
NCI-H23 lung = tested on: NCI-H23 lung
NCI-H460 lung = tested on: NCI-H460 lung
NCI/ADR-RES ovarian = tested on: NCI/ADR-RES ovarian
OVCAR-3 ovarian = tested on: OVCAR-3 ovarian
OVCAR-4 ovarian = tested on: OVCAR-4 ovarian
OVCAR-5 ovarian = tested on: OVCAR-5 ovarian
PC-3 prostate = tested on: PC-3 prostate
RPMI-8226 leukemia = tested on: RPMI-8226 leukemia
SF-268 CNS = tested on: SF-268 CNS
SF-539 CNS = tested on: SF-539 CNS
SK-MEL-2 melanoma = tested on: SK-MEL-2 melanoma
SK-MEL-28 melanoma = tested on: SK-MEL-28 melanoma
SK-MEL-5 melanoma = tested on: SK-MEL-5 melanoma
SK-OV-3 ovarian = tested on: SK-OV-3 ovarian
SN12C renal = tested on: SN12C renal
SNB-19 CNS = tested on: SNB-19 CNS
SNB-75 CNS = tested on: SNB-75 CNS
SW-620 colon = tested on: SW-620 colon
T-47D breast = tested on: T-47D breast
TK-10 renal = tested on: TK-10 renal
U251 CNS = tested on: U251 CNS
UACC-257 melanoma = tested on: UACC-257 melanoma
UACC-62 melanoma = tested on: UACC-62 melanoma
UO-31 renal = tested on: UO-31 renal
BT-549 breast = tested on: BT-549 breast
EKVX NSCLC = tested on: EKVX NSCLC
K-562 leukemia = tested on: K-562 leukemia
LOX IMVI melanoma = tested on: LOX IMVI melanoma
NCI-H522 lung = tested on: NCI-H522 lung
OVCAR-8 ovarian = tested on: OVCAR-8 ovarian
RXF 393 renal = tested on: RXF 393 renal
SF-295 CNS = tested on: SF-295 CNS
SR leukemia = tested on: SR leukemia

SMILES: CN(CCCNC(=O)Cc1ccc2ccc3cccc4ccc1c2c34)CCCNc1cc(-c2ccc3ccccc3c2)nc2ccccc12
- GI50 (786-0 renal): 1.53 µM
- TGI (786-0 renal): 2.97 µM
- GI50 (A498 renal): 1.66 µM
- TGI (A498 renal): 3.19 µM
- GI50 (A549 NSCLC): 1.83 µM
- TGI (A549 NSCLC): 3.75 µM
- GI50 (ACHN renal): 1.42 µM
- TGI (ACHN renal): 2.87 µM
- GI50 (CAKI-1 renal): 1.8 µM
- TGI (CAKI-1 renal): 3.55 µM
- GI50 (COLO 205 colon): 1.42 µM
- TGI (COLO 205 colon): 2.83 µM
- GI50 (DU-145 prostate): 1.55 µM
- TGI (DU-145 prostate): 2.89 µM
- GI50 (HCC-2998 colon): 1.48 µM
- TGI (HCC-2998 colon): 2.98 µM
- GI50 (HCT-116 colon): 0.333 µM
- TGI (HCT-116 colon): 1.28 µM
- GI50 (HCT-15 colon): 1.52 µM
- TGI (HCT-15 colon): 2.94 µM
- GI50 (HL-60(TB) leukemia): 1.1 µM
- TGI (HL-60(TB) leukemia): 2.43 µM
- GI50 (HOP-62 NSCLC): 1.71 µM
- TGI (HOP-62 NSCLC): 3.26 µM
- GI50 (HOP-92 NSCLC): 1.41 µM
- TGI (HOP-92 NSCLC): 3.02 µM
- GI50 (HS 578T breast): 1.66 µM
- TGI (HS 578T breast): 3.59 µM
- GI50 (HT29 colon): 0.511 µM
- TGI (HT29 colon): 1.69 µM
- GI50 (IGROV1 ovarian): 1.7 µM
- TGI (IGROV1 ovarian): 3.58 µM
- GI50 (KM12 colon): 1.36 µM
- TGI (KM12 colon): 2.69 µM
- GI50 (M14 melanoma): 1.76 µM
- TGI (M14 melanoma): 3.46 µM
- GI50 (MCF7 breast): 0.587 µM
- TGI (MCF7 breast): 2.08 µM
- GI50 (MDA-MB-231 breast): 1.54 µM
- TGI (MDA-MB-231 breast): 3.04 µM
- GI50 (MDA-MB-435): 1.44 µM
- TGI (MDA-MB-435): 3.05 µM
- GI50 (MOLT-4 leukemia): 1.19 µM
- TGI (MOLT-4 leukemia): 2.57 µM
- GI50 (NCI-H226 lung): 1.83 µM
- TGI (NCI-H226 lung): 3.83 µM
- GI50 (NCI-H23 lung): 1.68 µM
- TGI (NCI-H23 lung): 3.18 µM
- GI50 (NCI-H460 lung): 1.65 µM
- TGI (NCI-H460 lung): 3.61 µM
- GI50 (NCI/ADR-RES ovarian): 1.49 µM
- TGI (NCI/ADR-RES ovarian): 2.96 µM
- GI50 (OVCAR-3 ovarian): 1.76 µM
- TGI (OVCAR-3 ovarian): 3.29 µM
- GI50 (OVCAR-4 ovarian): 1.46 µM
- TGI (OVCAR-4 ovarian): 2.78 µM
- GI50 (OVCAR-5 ovarian): 1.82 µM
- TGI (OVCAR-5 ovarian): 3.28 µM
- GI50 (PC-3 prostate): 1.49 µM
- TGI (PC-3 prostate): 3.22 µM
- GI50 (RPMI-8226 leukemia): 1.22 µM
- TGI (RPMI-8226 leukemia): 4.11 µM
- GI50 (SF-268 CNS): 1.43 µM
- TGI (SF-268 CNS): 2.91 µM
- GI50 (SF-539 CNS): 1.54 µM
- TGI (SF-539 CNS): 2.98 µM
- GI50 (SK-MEL-2 melanoma): 1.82 µM
- TGI (SK-MEL-2 melanoma): 3.55 µM
- GI50 (SK-MEL-28 melanoma): 1.91 µM
- TGI (SK-MEL-28 melanoma): 3.32 µM
- GI50 (SK-MEL-5 melanoma): 1.64 µM
- TGI (SK-MEL-5 melanoma): 3.01 µM
- GI50 (SK-OV-3 ovarian): 1.64 µM
- TGI (SK-OV-3 ovarian): 3.06 µM
- GI50 (SN12C renal): 1.68 µM
- TGI (SN12C renal): 3.29 µM
- GI50 (SNB-19 CNS): 1.74 µM
- TGI (SNB-19 CNS): 3.18 µM
- GI50 (SNB-75 CNS): 1.45 µM
- TGI (SNB-75 CNS): 2.75 µM
- GI50 (SW-620 colon): 0.465 µM
- TGI (SW-620 colon): 1.7 µM
- GI50 (T-47D breast): 2.04 µM
- TGI (T-47D breast): 4.19 µM
- GI50 (TK-10 renal): 1.47 µM
- TGI (TK-10 renal): 3.02 µM
- GI50 (U251 CNS): 1.6 µM
- TGI (U251 CNS): 3.05 µM
- GI50 (UACC-257 melanoma): 1.8 µM
- TGI (UACC-257 melanoma): 3.56 µM
- GI50 (UACC-62 melanoma): 1.88 µM
- TGI (UACC-62 melanoma): 3.46 µM
- GI50 (UO-31 renal): 1.4 µM
- TGI (UO-31 renal): 3.15 µM

SMILES: COc1ccc(-c2c[nH]c(=S)n2-c2ccc(OC)cc2)cc1
- GI50 (786-0 renal): > 50 µM
- TGI (786-0 renal): > 50 µM
- GI50 (A498 renal): > 50 µM
- TGI (A498 renal): > 50 µM
- GI50 (A549 NSCLC): > 50 µM
- TGI (A549 NSCLC): > 50 µM
- GI50 (ACHN renal): > 50 µM
- TGI (ACHN renal): > 50 µM
- GI50 (BT-549 breast): > 50 µM
- TGI (BT-549 breast): > 50 µM
- GI50 (CAKI-1 renal): > 50 µM
- TGI (CAKI-1 renal): > 50 µM
- GI50 (COLO 205 colon): > 50 µM
- TGI (COLO 205 colon): > 50 µM
- GI50 (DU-145 prostate): > 50 µM
- TGI (DU-145 prostate): > 50 µM
- GI50 (EKVX NSCLC): > 50 µM
- TGI (EKVX NSCLC): > 50 µM
- GI50 (HCT-116 colon): > 50 µM
- TGI (HCT-116 colon): > 50 µM
- GI50 (HCT-15 colon): > 50 µM
- TGI (HCT-15 colon): > 50 µM
- GI50 (HL-60(TB) leukemia): > 50 µM
- TGI (HL-60(TB) leukemia): > 50 µM
- GI50 (HOP-62 NSCLC): > 50 µM
- TGI (HOP-62 NSCLC): > 50 µM
- GI50 (HS 578T breast): > 50 µM
- TGI (HS 578T breast): > 50 µM
- GI50 (HT29 colon): > 50 µM
- TGI (HT29 colon): > 50 µM
- GI50 (IGROV1 ovarian): > 50 µM
- TGI (IGROV1 ovarian): > 50 µM
- GI50 (K-562 leukemia): > 50 µM
- TGI (K-562 leukemia): > 50 µM
- GI50 (KM12 colon): > 50 µM
- TGI (KM12 colon): > 50 µM
- GI50 (LOX IMVI melanoma): > 50 µM
- TGI (LOX IMVI melanoma): > 50 µM
- GI50 (MCF7 breast): > 50 µM
- TGI (MCF7 breast): > 50 µM
- GI50 (MDA-MB-231 breast): > 50 µM
- TGI (MDA-MB-231 breast): > 50 µM
- GI50 (MDA-MB-435): > 50 µM
- TGI (MDA-MB-435): > 50 µM
- GI50 (MOLT-4 leukemia): > 50 µM
- TGI (MOLT-4 leukemia): > 50 µM
- GI50 (NCI-H226 lung): > 50 µM
- TGI (NCI-H226 lung): > 50 µM
- GI50 (NCI-H23 lung): > 50 µM
- TGI (NCI-H23 lung): > 50 µM
- GI50 (NCI-H460 lung): > 50 µM
- TGI (NCI-H460 lung): > 50 µM
- GI50 (NCI-H522 lung): > 50 µM
- TGI (NCI-H522 lung): > 50 µM
- GI50 (NCI/ADR-RES ovarian): > 50 µM
- TGI (NCI/ADR-RES ovarian): > 50 µM
- GI50 (OVCAR-3 ovarian): > 50 µM
- TGI (OVCAR-3 ovarian): > 50 µM
- GI50 (OVCAR-5 ovarian): > 50 µM
- TGI (OVCAR-5 ovarian): > 50 µM
- GI50 (OVCAR-8 ovarian): > 50 µM
- TGI (OVCAR-8 ovarian): > 50 µM
- GI50 (PC-3 prostate): > 50 µM
- TGI (PC-3 prostate): > 50 µM
- GI50 (RPMI-8226 leukemia): 20.4 µM
- TGI (RPMI-8226 leukemia): > 50 µM
- GI50 (RXF 393 renal): > 50 µM
- TGI (RXF 393 renal): > 50 µM
- GI50 (SF-268 CNS): > 50 µM
- TGI (SF-268 CNS): > 50 µM
- GI50 (SF-295 CNS): > 50 µM
- TGI (SF-295 CNS): > 50 µM
- GI50 (SF-539 CNS): > 50 µM
- TGI (SF-539 CNS): > 50 µM
- GI50 (SK-MEL-2 melanoma): > 50 µM
- TGI (SK-MEL-2 melanoma): > 50 µM
- GI50 (SK-MEL-28 melanoma): > 50 µM
- TGI (SK-MEL-28 melanoma): > 50 µM
- GI50 (SK-MEL-5 melanoma): > 50 µM
- TGI (SK-MEL-5 melanoma): > 50 µM
- GI50 (SN12C renal): > 50 µM
- TGI (SN12C renal): > 50 µM
- GI50 (SNB-19 CNS): > 50 µM
- TGI (SNB-19 CNS): > 50 µM
- GI50 (SNB-75 CNS): > 50 µM
- TGI (SNB-75 CNS): > 50 µM
- GI50 (SR leukemia): > 50 µM
- TGI (SR leukemia): > 50 µM
- GI50 (SW-620 colon): > 50 µM
- TGI (SW-620 colon): > 50 µM
- GI50 (TK-10 renal): > 50 µM
- TGI (TK-10 renal): > 50 µM
- GI50 (U251 CNS): > 50 µM
- TGI (U251 CNS): > 50 µM
- GI50 (UACC-257 melanoma): > 50 µM
- TGI (UACC-257 melanoma): > 50 µM
- GI50 (UACC-62 melanoma): > 50 µM
- TGI (UACC-62 melanoma): > 50 µM
- GI50 (UO-31 renal): > 50 µM
- TGI (UO-31 renal): > 50 µM
